The text below walks through data of publication PMC4103530, “Antimicrobial Activity of Pantothenol against Staphylococci Possessing a Prokaryotic Type II Pantothenate Kinase” (Microbes and Environments, 2014).

The target in assay [1] is T1, EcCoaA (prokaryotic type I pantothenate kinase) (Escherichia coli, UniProt P0A6I3).
T1 construct: gene coaA; recombinant from pET15b/bPanK in E. coli BL21 (DE3), nickel-resin purified, His-tag
T1 sequence (P0A6I3 1-316): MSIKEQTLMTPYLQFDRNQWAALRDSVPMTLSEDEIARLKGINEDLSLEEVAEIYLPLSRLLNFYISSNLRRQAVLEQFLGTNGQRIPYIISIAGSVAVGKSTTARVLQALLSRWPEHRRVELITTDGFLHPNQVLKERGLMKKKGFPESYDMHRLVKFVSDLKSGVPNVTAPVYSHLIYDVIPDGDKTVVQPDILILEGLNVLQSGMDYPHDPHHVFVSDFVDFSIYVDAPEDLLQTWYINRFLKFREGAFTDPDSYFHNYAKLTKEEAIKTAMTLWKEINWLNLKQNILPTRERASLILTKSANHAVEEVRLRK
Put plainly: radiometric pantothenate kinase assay with D-[…]pantothenate. It counts as biochemical.

Assay [2] concerns the target T2, SaCoaA (prokaryotic type II pantothenate kinase) (Staphylococcus aureus, UniProt Q8NVG0).
T2 construct: gene coaW; recombinant from pET-28a(+) (pET-Sa-coaA) in E. coli BL21 (DE3), nickel-resin purified, His-tag
T2 sequence (Q8NVG0 1-267): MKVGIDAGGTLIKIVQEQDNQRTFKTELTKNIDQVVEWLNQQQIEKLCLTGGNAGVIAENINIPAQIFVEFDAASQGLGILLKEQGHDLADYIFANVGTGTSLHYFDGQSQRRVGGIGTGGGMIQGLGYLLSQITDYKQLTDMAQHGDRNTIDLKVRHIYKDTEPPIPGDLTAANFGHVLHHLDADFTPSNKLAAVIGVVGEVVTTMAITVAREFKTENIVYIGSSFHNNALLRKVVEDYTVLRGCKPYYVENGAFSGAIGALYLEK
The assay is described as above. The class given is biochemical.

Usually IC50 stands for the concentration that gives 50% inhibition. A high value points to weaker potency. As for `CC(C)(CO)[C@@H](O)C(=O)NCCCO` [d-pantothenol], the IC50 in assay [1] turned out to be 6.06 mM; in assay [2], 1.68 mM.
